Source: US4576957A, “N-(Substituted phenyl)-N'-[(1H-imidazol-1-yl) and (1H-1,2,4-triazol-1-yl)alkyl]ureas” (American Cyanamid Company, priority 1984, dated 1986)

Key:
[1] = biological target: T1, thromboxane synthetase enzyme (Rattus norvegicus, UniProt P49430); experiment: Thromboxane Synthetase Enzyme Inhibition (TXB2 formation by washed SHR platelets, RIA); assay type: cell-based, Okamoto-Aoki spontaneously hypertensive rats (SHR); conditions: 10 min; Dose 10^-4 (unit inferred); SHR platelet suspension, 10 minutes at 37° C.
T1 construct: The platelets were isolated by centrifuging the PRP for 10 minutes at 1060xg; endogenous in cells; host or cells: washed platelets from arterial blood of Okamoto-Aoki spontaneously hypertensive rats (Taconic Farms, Germantown, NY)
T1 sequence (P49430 1-533): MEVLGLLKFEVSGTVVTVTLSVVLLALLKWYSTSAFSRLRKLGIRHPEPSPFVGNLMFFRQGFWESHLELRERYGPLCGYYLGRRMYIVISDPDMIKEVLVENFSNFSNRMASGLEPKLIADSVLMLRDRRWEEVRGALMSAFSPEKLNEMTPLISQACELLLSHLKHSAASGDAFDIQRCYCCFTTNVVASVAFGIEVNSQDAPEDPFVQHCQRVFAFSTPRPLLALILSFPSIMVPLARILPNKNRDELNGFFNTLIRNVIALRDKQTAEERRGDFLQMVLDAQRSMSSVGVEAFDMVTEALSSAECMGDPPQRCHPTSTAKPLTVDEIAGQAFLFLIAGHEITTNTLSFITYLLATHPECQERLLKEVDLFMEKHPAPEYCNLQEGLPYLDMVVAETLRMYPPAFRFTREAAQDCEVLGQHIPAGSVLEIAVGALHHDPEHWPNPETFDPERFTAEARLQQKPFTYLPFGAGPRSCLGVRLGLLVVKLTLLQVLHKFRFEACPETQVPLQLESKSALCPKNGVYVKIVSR
Procedure: Under urethan anesthesia, […] of arterial blood was collected in one ml. of 3.2% sodium citrate in a polystyrene tube from Okamoto-Aoki spontaneously hypertensive rats (SHR) (Taconic Farms, Germantown, NY) between 19 and 24 weeks in age. The blood was diluted with 3 ml. cold saline and centrifuged at room temperature for 15 minutes at 460xg. The platelet rich plasma (PRP) was separated. The platelets were isolated by centrifuging the PRP for 10 minutes at 1060xg and were washed in 4 ml. of cold oxygenated Krebs phosphate buffer, pH 7.4. The chilled platelets recovered from centrifuging at 800xg for 10 minutes were resuspended in oxygenated Krebs phosphate buffer and diluted to contain 4.5-6.0×10^4 platelets/μl.
The inhibition of thromboxane (TX) formation was studied by determining the concentration of thromboxane B2 (TXB2), the stable hydrolysis product of TXA2. Assay samples, prepared on ice, contained 200 μl platelet suspension, 50 μl saline and 50 μl saline and 50 μl vehicle or drug under study. The samples were incubated for 10 minutes at 37° C. in a metabolic shaker. The reaction was terminated by immersing the tubes in an ice bath and adding 50 μl of 0.5M citric acid. The samples were centrifuged for 10 minutes in a refrigerated centrifuge and the supernatants thus obtained were decanted and stored at -20° C. The TXB2 content for each sample was determined by a direct radioimmunoassay (RIA) utilizing a TXB2 specific RIA kit purchased from New England Nuclear, Boston, MA and expressed as pg TXB2 formed minute^-1 sample^-1, from which the percent inhibition of TXB2 formation was calculated.

[2] = system: spontaneously hypertensive rats; experiment: Hypotensive Activity in Spontaneously Hypertensive Rats; assay type: in vivo; conditions: gavage, 100 mg./kg. or less, two doses 24 hours apart; measured 28 hours after initial dose; initial average 170±1.5 mm
Procedure: The novel compounds of the present invention are active hypotensive agents and were tested for hypotensive activity by the method of P. S. Chan and D. Poorvin, Clinical and Experimental Hypertension, 1 (6), 817-830 (1979). Male, 16 week old, spontaneously hypertensive rats of the Okamoto strain, from Taconic Farms, Germantown, N.Y., having an average mean arterial blood pressure of 170±1.5 mm of mercury are used in the test. One to 3 rats are used per test compound. A rat is dosed by gavage with a test compound, suspended in 2% pre-boiled starch at a concentration of 50 mg./ml., at a dose of 100 mg./kg. of body weight or less, with 0.9% sodium chloride loading at a dose of 25 ml./kg. of body weight. A second identical dose of the test compound, without sodium chloride loading is given 24 hours later. At 28 hours after the initial dose the mean arterial blood pressure is measured by the method of Chan and Poorvin vide supra. The procedure is repeated in a second and third rat when necessary.

[3] = system: coronary arteries of rabbits; conditions: cited from earlier work
[4] = system: coronary arteries of guinea pigs; conditions: cited from earlier work
[5] = system: ischemic myocardium in canines; conditions: cited from earlier work

Row | inhibition at 100 µM [1] [%] | Compound | Average MABP [2] [mm Hg] | further results
1 | 99 | O=C(NCCCn1cncn1)Nc1cccc(C(F)(F)F)c1 [N-[3-(1H-1,2,4-triazol-1-yl)propyl]-N'-[3-(trifluoromethyl)phenyl]urea] | 143 | –
2 | 94 | COc1ccc(NC(=O)NCCCn2ccnc2)cc1 [N--[3-(1H--imidazol-1-yl)propyl]-N'--(4-methoxyphenyl)urea] | – | –
3 | 92 | O=C(NCCCCCn1ccnc1)Nc1ccc(Cl)cc1 | 153 | –
4 | 94 | O=C(NCCCn1ccnc1)Nc1ccccc1Cl [N--(2-chlorophenyl)-N'--[3-(1H--imidazole-1-yl)propyl]-urea] | 123 | –
5 | – | O=C(NCCCCn1ccnc1)Nc1ccccc1Br [N--(2-bromophenyl)-N'--[4-(1H--imidazol-1-yl)-butyl]-urea] | 98 | –
6 | 95 | O=C(NCCCCn1ccnc1)Nc1ccc(Cl)cc1 [N--(4-chlorophenyl)-N'--[4-(1H--imidazol-1-yl)butyl]urea] | 131 | –
7 | – | CCCCC[C@H](O)/C=C/[C@H]1O[C@H]2C[C@H](O2)[C@@H]1C/C=C\CCCC(=O)O [TXA2, thromboxane A2] | – | effect of injection into coronary arteries [3]: causes myocardial ischemia and subendocardial necrosis; effect of injection into coronary arteries [4]: causes myocardial ischemia and subendocardial necrosis
8 | – | CCCCC[C@H](O)/C=C/[C@@H]1[C@H]2C/C(=C/CCCC(=O)O)O[C@H]2C[C@H]1O [PGI2, Prostacyclin] | – | effect on ischemic myocardium [5]: beneficial effects
9 | 99 | O=C(NCCCn1ccnc1)Nc1ccccc1F [N--(2-fluorophenyl)-N'--[3-(1H--imidazole-1-yl)propyl]-urea] | 135 | –
10 | – | O=C(NCCCCn1ccnc1)Nc1ccccc1Cl [N-(2-Chlorophenyl)-N'-[4-(-1H-imidazol-1-yl)butyl]urea] | 97 | –
11 | 100 | O=C(NCCCn1ccnc1)Nc1ccc(F)cc1 [N--(4-fluorophenyl)-N'--[3-(1H--imidazol-l-yl)propyl]-urea] | 134 | –
12 | – | O=C(NCCCn1cncn1)Nc1ccccc1 [N--phenyl-N'--[3-(1H--1,2,4-triazol-1-yl)propyl]urea] | 151 | –
13 | 97 | O=C(NCCCn1ccnc1)Nc1ccccc1 [N--[3-(1H--imidazol-1-yl)propyl]-N'--phenylurea] | 141 | –
14 | 71 | COc1ccc(NC(=O)NCCCn2cncn2)cc1 [N--(4-methoxyphenyl)-N'--[3-(1H--1,2,4-triazol-1-yl)-propyl]urea] | – | –
15 | 98 | Cc1ccc(NC(=O)NCCCn2ccnc2)cc1 [N--[3-(1H--imidazole-1-yl)-propyl]-N'--(4-methylphenyl)-urea] | – | –
16 | 100 | O=C(NCCCn1ccnc1)Nc1cccc(Cl)c1 [N--(3-chlorophenyl)-N'--[3-(1H--imidazole-1-yl)propyl]-urea] | 124 | –

Row | inhibition at 100 µM [1] [%] | Compound | Average MABP [2] [mm Hg] | further results
17 | 92 | O=C(NCCCn1ccnc1)Nc1ccc(Cl)cc1 [N-(4-Chlorophenyl)-N'-[3-(1H-imidazol-1-yl)propyl]urea] | 122 | –
18 | 97 | O=C(NCCCn1cncn1)Nc1ccc(F)cc1 [N--(4-fluorophenyl)-N'--[3-(1H--1,2,4-triazol-1-yl)propyl]urea] | – | –
19 | 100 | Cc1cn(CCCCNC(=O)Nc2ccc(Cl)cc2)cn1 [N--(4-chlorophenyl)-N'--[4-(4-methyl-1H--imidazol-1-yl)-butyl]urea] | – | –
20 | 93 | O=C(NCCCn1cncn1)Nc1ccc(Cl)cc1 [N-(4-Chlorophenyl)-N'-[3-(1H-1,2,4 triazol-1-yl)propyl]urea] | 145 | –
21 | 92 | Cc1cn(CCCNC(=O)Nc2ccc(Cl)cc2)cn1 [N--(4-chlorophenyl)-N'--[3-(4-methyl-1H--imidazol-1-yl)-propyl]urea] | 138 | –
22 | 86 | O=C(NCCCn1ccnc1-c1ccccc1)Nc1ccc(Cl)cc1 [N--(4-chlorophenyl)-N'--[3-(2-phenyl-1H--imidazol-1-yl)-propyl]urea] | – | –
23 | 85 | O=C(NCCCn1cncn1)Nc1ccccc1Br [N--(2-bromophenyl)-N'--[3-(1H--1,2,4-triazol-1-yl)propyl]-urea] | 130 | –
24 | 86 | O=C(NCCCn1cncn1)Nc1ccccc1Cl [N--(2-chlorophenyl)-N'--[3-(1H--1,2,4-triazol-1-yl)propyl]-urea] | 142 | –
25 | 70 | O=C(NCCCn1cncn1)Nc1ccccc1F [N--(2-fluorophenyl)-N'--[3-(1H--1,2,4-triazol-1-yl)propyl]-urea] | 149 | –
26 | 86 | O=C(NCCCn1cncn1)Nc1ccc(Br)cc1 [N--(4-bromophenyl)-N'--[3-(1H--1,2,4-triazol-1-yl)propyl]urea] | – | –
27 | 95 | O=C(NCCCn1ccnc1)Nc1ccccc1Br [N--(2-bromophenyl)-N'--[3-(1H--imidazole-1-yl)propyl]-urea] | 113 | –
28 | – | O=C(NCCCn1cncn1)Nc1ccc(Cl)c(Cl)c1 [N--(3,4-dichlorophenyl)-N'--[3-(1H--1,2,4-triazol-1-yl)-propyl]urea] | 155 | –
29 | 99 | O=C(NCCCn1cncn1)Nc1cccc(Cl)c1 [N--(3-chlorophenyl)-N--[3-(1H--1,2,4-triazol-1-yl)propy]-urea] | 149 | –
30 | 95 | O=C(NCCCn1ccnc1)Nc1ccc(Cl)c(Cl)c1 [N--(3,4-dichlorophenyl)-N'--[3-(1H--imidazole-1-yl)propyl]-urea] | 146 | –
31 | 95 | O=C(NCCCn1ccnc1)Nc1ccc(Br)cc1 [N--(4-bromophenyl)-N'--[3-(1H--imidazole-1-yl)propyl]-urea] | 145 | –
32 | 100 | O=C(NCCCn1ccnc1)Nc1cccc(C(F)(F)F)c1 [N-[3-(1H-Imidazol-1-yl)propyl]-N'-[3-(trifluoromethyl)phenyl]urea] | – | –
